How the values were obtained:
[1] = molecular target: T1, SARS-CoV-2 PLpro (papain-like protease) (Severe acute respiratory syndrome coronavirus 2, UniProt P0DTD1); conditions: binder
[2] = molecular target: T1, SARS-CoV-2 PLpro (papain-like protease); test: biochemical

| SMILES | Ave kd [1] [s⁻¹] | IC50 [2] [µM] |
| --- | --- | --- |
| Cc1ccc(NC2CNC2)cc1C(=O)N[C@H](C)c1cccc(-c2ccc(CNC3CCCC3)s2)c1 [XR8-23] | 0.124 |  |
| Cc1ccc(NC2CNC2)cc1C(=O)N[C@H](C)c1cccc2ccccc12 [ZN2-184] | 0.349 |  |
| Cc1ccc(NC2CNC2)cc1C(=O)N[C@H](C)c1cccc(-c2cccs2)c1 [ZN3-80] | 0.327 |  |
| CC(C)c1cc(C(C)C)c(CC(=O)NS(=O)(=O)Oc2c(C(C)C)cccc2C(C)C)c(C(C)C)c1 [avasimibe] |  | > 20 |
| CCOc1nc2cccc(C(=O)O)c2n1Cc1ccc(-c2ccccc2-c2nnn[nH]2)cc1 [candesartan] |  | > 20 |

Source: article doi:10.1101/2021.02.13.431008v1 (biorxiv, 2021)
